Measurements reported in ChEMBL document CHEMBL1157255, “Flavan-4-ol Glycosides from the Rhizomes of Abacopteris penangiana” (J Nat Prod, 2006).
Values after ≈ are worked out from the molar mass of the structure shown.

Tested on: HepG2
Experiment: Cytotoxicity against human HepG2 cells by MTT assay
Type: functional, cell-based

| SMILES | IC50 [µg/mL] |
| --- | --- |
| COc1ccc([C@@H]2C[C@@H]3O[C@H]4[C@H](Oc5c(C)c(O)c(C)c(c53)O2)O[C@H](COC(C)=O)[C@@H](O)[C@@H]4O)cc1 | 3.5 (≈ 6.96 µM) |
| COc1ccc([C@@H]2C[C@@H](O)c3c(c(C)c(O[C@@H]4O[C@H](CO)[C@@H](O)[C@H](O)[C@H]4O)c(CO)c3O[C@@H]3O[C@H](CO)[C@@H](O)[C@H](O)[C@H]3O)O2)cc1 [TRIPHYLLIN A] | 5.7 (≈ 8.68 µM) |
| COc1ccc([C@@H]2C[C@@H](O)c3c(c(C)c4c(c3O[C@@H]3O[C@H](CO)[C@@H](O)[C@H](O)[C@H]3O)CO[C@H]3[C@H](O4)O[C@H](CO)[C@@H](O)[C@@H]3O)O2)cc1 | 3.1 (≈ 4.85 µM) |
| COc1ccc([C@@H]2C[C@@H]3O[C@H]4[C@H](Oc5c(C)c(O)c(C)c(c53)O2)O[C@H](CO)[C@@H](O)[C@@H]4O)cc1 [ABACOPTERIN C] | 4 (≈ 8.69 µM) |
| O=c1[nH]cc(F)c(=O)[nH]1 [FLUOROURACIL] | 1.3 (≈ 9.99 µM) |
| COc1ccc([C@@H]2C[C@@H]3O[C@H]4[C@H](Oc5c(C)c(O)c(C)c(c53)O2)O[C@H](CO)[C@@H](O)[C@@H]4OC(C)=O)cc1 | 4.1 (≈ 8.16 µM) |
